Patent US5736565A, “Therapeutic compounds suitable for the treatment of diseases connected with glutathione deficiency, process for their preparation, and pharmaceutical compositions containing same” (Prospa B.V., priority 1992, dated 1998)
Read-outs that look alike come from different tables or passages of the source. Peptide text beside a SMILES is read from it.

How the values were obtained:
[1] = system: reactive oxygen species (ROS) production of human spermatozoa; assay: Effect of PSC on the spermatic production of free radicals (chemiluminescence with luminol); format: cell-based
Text: Free radicals production was investigated under basal and maximal conditions (after A23187 addition) on controls and in the presence of PSC.
A23187 is an ionophore bivalent cation that, under physiological conditions, promotes acrosomial reaction. It is used being capable of stimulating the production of superoxide radicals (Aitken R. J. et al., Generation of reactive oxygen species, lipid peroxidation and human sperm function, J. of Reproduction, 40, 183-197, 1989).
Seminal fluid was obtained from 11 donors previously subjected to a complete medical check-up, to exclude the presence, if any, of sexual transmission diseases. Samples were obtained by masturbation and analysed within 1.5 hrs thereafter.
Spermatozoa were separated from seminal fluid by three centrifugation cycles (500×g for 5 min) and resuspended in medium BWW (Biggers et al., "The culture of mouse embryos in vitro", Daniel J. C. ed., Methods in mammalian embryology, 86-116, 1971) at a concentration of 20×10^6 /ml.
The production of reactive oxygen species (ROS) was evaluated by chemiluminescence with luminol: human spermatozoa suspensions at a concentration of […] in a volume of 500 μl were subjected to the action of luminol (LM 100 mmol/l in dimethyl sulphoxide).Said spermatic suspension was then diluted with 500 μl of medium BWW alone (control) or containing PSC (10 mM); other spermatic suspensions contained A23187 (0.05 mg/ml) alone (positive control) and, respectively, A23187 (0.05 mg/ml)+PSC (10 mM).
3 Minutes later, the chemiluminescent signal was recorded. Reactive oxygen species (ROS) production was expressed as photons brust (cpm) recorded by a luminometer Berthold L 9500.

splenocytes = assay: Blastization with concavaline A (ConA) on splenocytes of PSC-treated young and old rats; format: in vivo, Sprague-Dawley rats
Protocol: Sprague-Dawley rats (Charles River, Calco (CO)), aged 10 weeks (young adults) and 24 months (old), were stabled under standard conditions (24°±1° C., 12 h light/dark cycle, free access to food and water). Handlings were made in such a way as to avoid stressful stimuli.
The animals were stabled in groups of 6 per cage and treated for 2 weeks (15 days) with a PSC daily dose of 600 mg/kg by intraperitoneal route (i.p.).
Once the treatment with PSC previously described in the paragraph "Animals" was completed, the animals were sacrificed by decapitation, spleens were excised under sterile conditions and broken up in a Petri dish. The splenocytes thus obtained by mechanical dispersion were placed in culture medium RPMI 1640 with addition of calf fetal serum (FBS) (10%).
The resulting cellular suspension was centrifuged at 2500 rpm for 20 min on Ficoll-Paque gradient. Stratified splenocytes were taken by a sterile Pasteur pipette and washed three times with sterile FBS. Cells were counted and placed onto 96-well plastic plates at a concentration of 1×10^5 /well in of volume of 0.1 ml. The cultures thus obtained were incubated for 48 hrs at 37° C., in a […] environment. Forty-eight hours later, concavaline A (ConcA) was added to the cultures at a concentration of 1 μg/ml in a volume of 0.1 ml. Eighteen hours later, tritiated thymidine was added (volume: 10 μl). Incorporation of tritiated thymidine was stopped after 3 hrs, by elimination of excess liquid by suction and by sucking the cells on fibreglass filters. Filters were placed in scintillation vials containing 5 ml of scintillating solution (Insta-Gel). Radioactivity (dpm) was measured during 2 min using a β-counter.
The results obtained on groups treated with ConA alone (controls), on groups treated with PSC (600 mg/kg), and on groups that had not been treated either with ConA or PSC are compared in Table 13.

hepatocytes = assay: Tests in vitro: vitality of isolated rat hepatocytes; format: cell-based; conditions: for viability at 250 µM / viability at 500 µM / viability at 1000 µM / viability at 2500 µM / viability at 5000 µM: Rattus norvegicus, Hepatocyte, read-out: Cells vitality; for viability at 1000 µM: DEM + 1.0 mM; for viability at 5000 µM: DEM + 5.0 mM
Protocol: The experimental model envisages the isolation of hepatic parenchymal cells of rats following perfusion, with collagenase, of the isolated organ. Prior to each test, hepatocytes vitality was quantified by Tripan Blue […]. Only the cells with a vitality greater than 90% were utilized. Hepatocytes were resuspended, at a concentration of 10^6 cells/ml, in a saline medium (Krebs Heinseleit) at ph 7.4, and then placed into rotating flasks in the presence of O2 (95%) and CO2 (5%), at 37° C. Cells keep vital for 5-6 hours at least.
[…] The cells were then washed for 30 min. and incubated with various concentrations of the test substance (from 0.25 to 5 mM).
By this experimental model it is possible to test the effect of the substance by evaluating the hepatic functionality determined by measurements of the vitality (Tables Nos. 3, 4, and 5) and of glutathione content (Tables 6, 7, and 8).
In the Tables 3-8 herein below reported, the controls are represented by normal hepatocytes, not treated either with DEM or with compound (I).

`CC(=O)SC[C@H](NC(=O)[C@@H]1CCC(=O)N1)C(=O)O` [PSC, 2-(S)-(2-pyrrolidone-5-(S)-carbonyl amido)-3-acetylmercapto propionic acid] (HELM PEPTIDE1{[Glp].C}|PEPTIDE2{[ac]}$PEPTIDE1,PEPTIDE2,2:R3-1:R2$$$V2.0) was tested, and the “free radicals production (in words)” value ([1]; basal and maximal conditions) was “caused a significant reduction in free radicals production”, the “ROS production, photons brust” value ([1]; medium + A23187 (0.05 mg/ml) + PSC (10 mM)) was 270.8 +/- 254 cpm and the “ROS production, photons brust” value ([1]; medium + PSC (10 mM), basal) was 243.7 +/- 235.2 cpm. The “splenocytes blastization induced by ConA (in words)” value (splenocytes; 600 mg/kg) was “showed a significant increase in splenocytes blastization induced by ConA”, the “blastization (tritiated thymidine incorporation), Young” value (splenocytes; 600 mg/kg i.p. 15 days + ConA) was 1488 ± 62 DPM × 100 and the “blastization (tritiated thymidine incorporation), Old” value (splenocytes; 600 mg/kg i.p. 15 days + ConA, *P < 0.05) was 1250 ± 11 DPM × 100. For the same compound, the viability at 250 µM (hepatocytes; 0 h, DEM + 0.25 mM, 0 time (Table 4)) was 95%, the viability at 500 µM (hepatocytes; 0 h, DEM + 0.50 mM, 0 time (Table 4)) was 95% and the viability at 1000 µM (hepatocytes; 0 h, 0 time (Table 5)) was 96%. It also gave a viability at 2500 µM (hepatocytes; 0 h, DEM + 2.5 mM, 0 time (Table 5)) of 96%, a viability at 5000 µM (hepatocytes; 0 h, 0 time (Table 5)) of 96% and a viability at 250 µM (hepatocytes; 0 h, no DEM, 0.25 mM, 0 time) of 100%. The viability at 500 µM (hepatocytes; 0 h, no DEM, 0.50 mM, 0 time) was 100%, the viability at 2500 µM (hepatocytes; 0 h, no DEM, 2.5 mM, 0 time) was 100% and the viability at 250 µM (hepatocytes; 0.5 h, DEM + 0.25 mM, 30 min (Table 4)) was 90%. It also gave a viability at 500 µM (hepatocytes; 0.5 h, DEM + 0.50 mM, 30 min (Table 4)) of 88%, a viability at 1000 µM (hepatocytes; 0.5 h, 30 min (Table 5)) of 92% and a viability at 2500 µM (hepatocytes; 0.5 h, DEM + 2.5 mM, 30 min (Table 5)) of 89%. It also gave a viability at 5000 µM (hepatocytes; 0.5 h, 30 min (Table 5)) of 88%, a viability at 250 µM (hepatocytes; 0.5 h, no DEM, 0.25 mM, 30 min) of 101% and a viability at 500 µM (hepatocytes; 0.5 h, no DEM, 0.50 mM, 30 min) of 101%. For the same compound, the viability at 2500 µM (hepatocytes; 0.5 h, no DEM, 2.5 mM, 30 min) was 94%, the viability at 250 µM (hepatocytes; 1 h, DEM + 0.25 mM, 1 hr (Table 4)) was 87% and the viability at 500 µM (hepatocytes; 1 h, DEM + 0.50 mM, 1 hr (Table 4)) was 85%. The viability at 1000 µM (hepatocytes; 1 h, 1 hr (Table 5)) was 90%, the viability at 2500 µM (hepatocytes; 1 h, DEM + 2.5 mM, 1 hr (Table 5)) was 84% and the viability at 5000 µM (hepatocytes; 1 h, 1 hr (Table 5)) was 84%. For the same compound, the viability at 250 µM (hepatocytes; 1 h, no DEM, 0.25 mM, 1 hr) was 98%, the viability at 500 µM (hepatocytes; 1 h, no DEM, 0.50 mM, 1 hr) was 100% and the viability at 2500 µM (hepatocytes; 1 h, no DEM, 2.5 mM, 1 hr) was 95%. The viability at 250 µM (hepatocytes; 2 h, DEM + 0.25 mM, 2 hrs (Table 4)) was 86%, the viability at 500 µM (hepatocytes; 2 h, DEM + 0.50 mM, 2 hrs (Table 4)) was 84% and the viability at 1000 µM (hepatocytes; 2 h, 2 hrs (Table 5)) was 89%. It also gave a viability at 2500 µM (hepatocytes; 2 h, DEM + 2.5 mM, 2 hrs (Table 5)) of 83.5%, a viability at 5000 µM (hepatocytes; 2 h, 2 hrs (Table 5)) of 82% and a viability at 250 µM (hepatocytes; 2 h, no DEM, 0.25 mM, 2 hrs) of 100%. The viability at 500 µM (hepatocytes; 2 h, no DEM, 0.50 mM, 2 hrs) was 101%, the viability at 2500 µM (hepatocytes; 2 h, no DEM, 2.5 mM, 2 hrs) was 95% and the viability at 250 µM (hepatocytes; 4 h, DEM + 0.25 mM, 4 hrs (Table 4)) was 87%. The viability at 500 µM (hepatocytes; 4 h, DEM + 0.50 mM, 4 hrs (Table 4)) was 85%, the viability at 1000 µM (hepatocytes; 4 h, 4 hrs (Table 5)) was 88% and the viability at 2500 µM (hepatocytes; 4 h, DEM + 2.5 mM, 4 hrs (Table 5)) was 82%. The viability at 5000 µM (hepatocytes; 4 h, 4 hrs (Table 5)) was 80%, the viability at 250 µM (hepatocytes; 4 h, no DEM, 0.25 mM, 4 hrs) was 116% and the viability at 500 µM (hepatocytes; 4 h, no DEM, 0.50 mM, 4 hrs) was 114%. The viability at 2500 µM (hepatocytes; 4 h, no DEM, 2.5 mM, 4 hrs) was 104%, the “cellular suffering (in words)” value (hepatocytes; hepatocytes treated with DEM then test substance) was “a cellular suffering (cellular dilatation without appearance of vesicles) was at first detected, which disappeared after few tens of minutes” and the “cellular toxicity (in words)” value (hepatocytes; in vitro, up to 5 mM) was “does not cause cellular toxicity and, at least in vitro, is very well tolerated”.
